Measured values as given in paper PMC8591201, “Anti-Tumor Activity of AZD4547 Against NTRK1 Fusion Positive Cancer Cells Through Inhibition of NTRKs” (Frontiers in Oncology, 2021).

Legend:
Experiment in all cases: cells
Set-up in all cases: Anti-proliferation, 10-point dose response, CellTiter-Glo luminescence (MTT stated for KM12(Luc)), GI50 fitted in Prism
A172 = settings: Homo sapiens, A 172, 72 h, read-out: GI50 (µM) a
AGS = settings: Homo sapiens, AGS, 72 h, read-out: GI50 (µM) a
AN3-CA = settings: Homo sapiens, AN3-CA, 72 h, read-out: GI50 (µM) a
HCT-116 = settings: Homo sapiens, HCT-116, 72 h, read-out: GI50 (µM) a
HuH-7 = settings: Homo sapiens, Huh-7, 72 h, read-out: GI50 (µM) a
KM12-Luc = settings: KM12-Luc, 72 h, read-out: GI50 (µM) a
LNCaP = settings: Homo sapiens, LNCaP, 72 h, read-out: GI50 (µM) a
MIA-PaCa-2 = settings: Homo sapiens, MIA PaCa-2, 72 h, read-out: GI50 (µM) a
MV-4-11 = settings: Homo sapiens, MV4-11, 72 h, read-out: GI50 (µM) a
OCI-AML3 = settings: Homo sapiens, OCI-AML-3, 72 h, read-out: GI50 (µM) a
T98G = settings: Homo sapiens, T98G, 72 h, read-out: GI50 (µM) a
U251 = settings: Homo sapiens, U-251, 72 h, read-out: GI50 (µM) a

COc1cc(CCc2cc(NC(=O)c3ccc(N4C[C@@H](C)N[C@@H](C)C4)cc3)n[nH]2)cc(OC)c1 [AZD4547]
GI50 (A172): 2.18 µM
GI50 (AGS): 58.1 µM
GI50 (AN3-CA): 0.2 µM
GI50 (HCT-116): 7.13 µM
GI50 (HuH-7): 1.35 µM
GI50 (KM12-Luc): 0.11 µM
GI50 (LNCaP): 22.7 µM
GI50 (MIA-PaCa-2): 12.2 µM
GI50 (MV-4-11): 0.93 µM
GI50 (OCI-AML3): 6.75 µM
GI50 (T98G): 5.21 µM
GI50 (U251): 11.6 µM
